# Patent EP1285920A1, “C10 Ester sustituted taxanes as antitumor agents” (Florida State University Research Foundation, Inc., priority 2001, dated 2003)
# Read-outs that look alike come from different tables or passages of the source. Marks after values point to notes of the source that are not given here.
# Key:
# [1] = tested on: blood cell populations; assay: Effect of oral treatment on blood cell populations and body weight in the MX-1 study (Example 22); type: in vivo, nu/nu mice; settings: mg/kg: 0499 80, 0550 73, 0611 113, 0748 200
# Experimental: (§1) Antitumor compounds were administered orally in a study to investigate whether such a formulation is efficacious against the MX-1 human breast carcinoma xenograft. Antitumor compound 0499 was formulated as Solution 1 in Example 6. Antitumor compound 0550 was formulated as Solution 2 in Example 6. Antitumor compound 0611 was formulated as Solution 3 in Example 6. Antitumor compound 0748 was formulated as Solution 4 in Example 6. Other antitumor compounds were formulated similarly. The compounds were prepared in a vehicle of 90% saline, 5% Cremophor, and 5% ethanol.
# (§2) Female nu/nu mice (11-12 weeks of age; implanted subcutaneously with 1 mm^3 MX-1 human breast carcinoma fragments in the flank) were sorted into one control group (n=10) and four treatment (n=6) groups (group mean tumor size of 47-49 mg). The study was terminated on Day 63.
# In addition to survival and tumor regression responses, the effect of treatment on blood cell populations was assessed. The major effect of these antitumor compounds on blood cell populations was a marked reduction in the neutrophil cell number. As well, monocyte depletion correlated fairly well with neutrophil reduction for each antitumor compound. […] There was a correlation between antitumor activity and reduced neutrophil count. In general, toxicity (as determined by neutrophil depletion) and weight loss correlated with efficacy. […] Importantly, the toxicities observed with the very efficacious antitumor compounds were manageable and reversible; neutrophil count and body weight rebounded from their low points in just a few days. Table 20 summarizes the weight reduction, neutrophil and monocyte measurements on Day 4, with tumor weight reduction calculated at Day 18: Table 20
# [2] = tested on: MX-1 human breast carcinoma; type: in vivo
# Experimental: as §1, §2
# [3] = tested on: HCT116; assay: In Vitro cytotoxicity measured by the cell colony formation assay; type: cell-based, human; settings: Homo sapiens, HCT-116; read-out: IN VITRO ID 50 HCT116
# Outline: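 Four hundred cells per dish in McCoy's 5a medium with 10% FBS were allowed to attach for 5 h at 37 °C. They were then exposed to compound for 72 h at 37 °C, added as a 10× stock made fresh in medium. After HBSS rinsing and refeeding, colonies were counted after 7 days.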
# [4] = tested on: MX-1 carcinoma
# Outline: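 Mice dosed with a single i.v. bolus (qd x 1) at each compound's MTD, formulated in 5% ethanol, 5% Cremophor, 90% isotonic saline. Study ended Day 60; complete response = tumor not palpable at study end.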
# [5] = tested on: Panc-1 pancreatic carcinoma; settings: for Mean Score: iv
# Experimental: The dosing volume was 0.3 ml per 20 g mouse.
# Female NCr-nude mice were implanted subcutaneously with 1 mm^3 Panc-1 pancreatic carcinoma fragments in the flank and sorted into treatment groups of six mice each. […] Dosing was initiated on Day 1. The antitumor compounds were given i.v. at an estimated maximum tolerated dose (MTD) appropriate for each agent on a qd x 1 schedule (single administration of compound). […] The vehicle was administered i.v. to control mice in Group 1 on the qd x 1 schedule.
# The mean days of survival is the number of days after which a neoplasm reached a size of 1.5 g and the animal was euthanized. A complete response is obtained if the tumor shrinks to a size smaller than its size on Day 1 of the study.
# [6] = tested on: A375 melanoma; settings: for mean group weight losses: A375, i.v. qd x 1; for Toxic Deaths / Survivors: number of mice, i.v. qd x 1 at estimated MTD (Taxol 24 mg/kg, Taxotere 70 mg/kg), 6 mice/group (Taxotere 7); for Survivors: Day 60
# Experimental: Dosing was initiated on Day 1. […] Taxotere was given i.v. on a qd x 1 schedule at a dose of 70 mg/kg. […] The study was terminated on Day 60. Treatment groups are detailed in Table 9.
# [7] = tested on: HCT116 carcinoma
# Outline: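 Mice bearing HCT116 tumours received a single i.v. maximum tolerated dose per compound, formulated in 5% ethanol, 5% Cremophor, 90% isotonic saline. Study ended on Day 60; complete response meant no palpable tumour at study end.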
# [8] = tested on: DU145 prostate carcinoma; settings: for Toxic Deaths / Survivors: number of 5 mice, Day 91; for Toxic Deaths: i.v. qd x 1 at estimated MTD (Taxol 24 mg/kg as two split doses); for Survivors: i.v. qd x 1 at estimated MTD (Taxol 24 mg/kg split)
# Description: Dosing was initiated on Day 1. […] Treatment groups are detailed in Table 5.
# [9] = tested on: A2780 ovarian carcinoma
# Experimental: Dosing was initiated on Day 1. […] Taxotere was given i.v. on a qd x 1 schedule at a dose of 70 mg/kg. […] The study was terminated on Day 60. Treatment groups are detailed in Table 7.
# [10] = tested on: Panc-1 pancreatic carcinoma; assay: In vivo evaluation against Panc-1 human pancreatic carcinoma (Example 17); settings: i.v. qd x 1
# [11] = tested on: VM46 colon carcinoma
# Experimental: Dosing was initiated on Day 1. […] Taxotere was given i.v. at a dose of 70 mg/kg on a qd x 1 schedule.
# [12] = Day 4, vs vehicle, single oral bolus
# [13] = number of mice, single oral bolus Day 1, mg/kg: 0499 80, 0550 73, 0611 113, 0748 200, 6 mice/group, Day 63
# [14] = Panc-1 (Example 18), i.v. qd x 1, six mice per group
# [15] = number of mice, i.v. qd x 1, mg/kg: Taxol 24, 0854 46.6, 1011 107.6, 6 mice/group
# [16] = number of mice, i.v. qd x 1, mg/kg: Taxol 24, 0854 46.6, 1011 107.6, 6 mice/group, Day 63
# [17] = A2780, i.v. qd x 1, five mice per group
# [18] = number of mice, mg/kg: Taxol 36, 0499 77, 0503 72.6, 0670 123.1, 0706 107.6, 0838 72.6, 0854 76.9, 6 mice/group, Day 60
# [19] = number of mice, i.v. qd x 1, mg/kg: Taxol 24, 0499 77, 0503 72.6, 0670 123.1, 0706 107.6, 0838 72.6, 0854 46.6, 0983 67.4, Taxotere 70, 6 mice/group, Day 64
smiles,measurement,setting,value
CCC(=O)O[C@H]1C(=O)[C@@]2(C)[C@H]([C@H](OC(=O)c3ccccc3)[C@]3(O)C[C@H](OC(=O)[C@H](O)[C@@H](NC(=O)OC(C)(C)C)c4ccccc4)C(C)=C1C3(C)C)[C@]1(OC(C)=O)CO[C@@H]1C[C@@H]2O [Compound 0611],% Reduction (Monocytes),[1]; [12],56.3%
same,% Reduction (Neutrophils),[1]; [12],93.7%
same,Monocytes (K/µL),"[1]; Day 4, single oral bolus Day 1",0.042 K/µL
same,Neutrophils (K/µL),"[1]; Day 4, single oral bolus Day 1",0.057 K/µL
same,Maximum Weight Loss (Day),"[1]; body weight, day of maximum in parentheses in the cell, single oral bolus Day 1",-15.0% (5)
same,complete tumor regressions,"[2]; MX-1, single oral bolus Day 1, six mice per group (0611: five evaluable), ended Day 63",four
same,Toxic Deaths,"[2]; number of mice, single oral bolus Day 1, mg/kg: 0499 80, 0550 73, 0611 113, 0748 200, 6 mice/group",1^a
same,Complete Response,[2]; [13],4
same,Partial Response,[2]; [13],0
same,Stable Disease,[2]; [13],0
same,% Reduction (Weight),"[2]; po, 432 h",100.0%
same,IC50,[3],< 10 nM
CCCC(=O)O[C@H]1C(=O)[C@@]2(C)[C@H]([C@H](OC(=O)c3ccccc3)[C@]3(O)C[C@H](OC(=O)[C@H](O)[C@@H](NC(=O)OC(C)(C)C)c4ccsc4)C(C)=C1C3(C)C)[C@]1(OC(C)=O)CO[C@@H]1C[C@@H]2O [Compound 1011],Partial Response,[4]; iv,0
same,Complete Response,"[4]; iv, 1440 h",6
same,Mean Score,"[4]; iv, 1440 h",10 ± 0
same,Stable Disease,"[4]; iv, 1440 h",0
same,Survivors,"[4]; number of 6 mice, i.v. qd x 1 at MTD, Day 60, doses as in E17",6
same,Toxic Deaths,"[4]; number of 6 mice, i.v. qd x 1 at MTD, Day 60, mg/kg: Taxol 36 (split dose), 0503 72.6, 0536 49, 0663 159, 0670 123, 0687 159, 0706 108, 0908 159, 0947 76.9, 0951 72.6, 0983 67.4, 0999 49, 1003 49, 1011 108",0
same,partial responses,[5]; [14],three
same,toxic deaths / toxic lethalities,[5]; [14],three
same,overall response rate,"[5]; Panc-1 (Example 18), i.v. qd x 1 at estimated MTD",100%
same,Mean Score,[5],4 ± 1.8
same,Toxic Deaths,[5]; [15],3
same,Complete Response,[5]; [16],0
same,Partial Response,[5]; [16],3
same,Stable Disease,[5]; [16],0
same,Survivors,[5]; [16],3
same,mean group weight losses,[6],20 - 30%
same,Toxic Deaths,[6],3
same,Survivors,[6],0
same,Partial Response,[7]; iv,2
same,Complete Response,"[7]; iv, 1440 h",3
same,Mean Score,"[7]; iv, 1440 h",9.6 ± 0.2
same,Stable Disease,"[7]; iv, 1440 h",0
same,Survivors,"[7]; number of 5 mice, i.v. qd x 1 at MTD, Day 60, doses as in E3",5
same,Toxic Deaths,"[7]; number of 5 mice, i.v. qd x 1 at MTD, Day 60, mg/kg: Taxol 36 (split doses), 0503 72.6, 0536 49, 0663 159, 0670 123, 0687 159, 0706 108, 0908 159, 0947 76.9, 0951 72.6, 0983 72.6, 0999 49, 1003 49, 1011 108",0
same,mortality rate,"[8]; DU145, i.v. qd x 1 at the administered dose, five animals",≥ 40%
same,Toxic Deaths,[8],3
same,Survivors,[8],0
same,maximal mean group weight loss,"[9]; A2780, i.v. qd x 1, Day 5",11.3%
same,Complete Response,[9]; [17],1
same,Toxic Deaths,[9]; [17],no toxic deaths
same,partial responses,[9]; [17],3
same,tolerability / toxicity,"[9]; mouse, in vivo, iv",well-tolerated
same,IC50,[3],< 1 nM
CC(=O)O[C@@]12CO[C@@H]1C[C@H](O)[C@@]1(C)C(=O)[C@H](OC(=O)C3CC3)C3=C(C)[C@@H](OC(=O)[C@H](O)[C@@H](NC(=O)OC(C)(C)C)c4cccs4)C[C@@](O)([C@@H](OC(=O)c4ccccc4)[C@H]21)C3(C)C [Compound 0854],Toxic Deaths,"[10]; Panc-1 (Example 17), six mice per group",six
same,Toxic Deaths,"[10]; number of mice, mg/kg: Taxol 36, 0499 77, 0503 72.6, 0670 123.1, 0706 107.6, 0838 72.6, 0854 76.9, 6 mice/group",6
same,Complete Response,[10]; [18],0
same,Partial Response,[10]; [18],2
same,Stable Disease,[10]; [18],0
same,Mean Score,"[10]; tumor scoring system, mg/kg: Taxol 36, 0499 77, 0503 72.6, 0670 123.1, 0706 107.6, 0838 72.6, 0854 76.9, 6 mice/group",0 ± 0
same,Mean Score,[5],0 ± 0
same,Toxic Deaths,[5]; [15],6
same,Complete Response,[5]; [16],0
same,Partial Response,[5]; [16],0
same,Stable Disease,[5]; [16],0
same,mean group weight losses,[6],20 - 30%
same,Toxic Deaths,[6],6
same,Survivors,[6],0
same,response rate,"[11]; VM46, i.v. qd x 1 at estimated MTD",16.7-40%
same,Mean Score,[11]; iv,4.7 ± 1.6
same,MDS (n),"[11]; iv, 1536 h",52.9 ± 6.6 (2) days
same,maximal mean weight loss,"[11]; mouse, in vivo, iv",under 12%
same,Toxic Deaths,"[11]; number of mice, i.v. qd x 1, mg/kg: Taxol 24, 0499 77, 0503 72.6, 0670 123.1, 0706 107.6, 0838 72.6, 0854 46.6, 0983 67.4, Taxotere 70, 6 mice/group",1
same,Complete Response,[11]; [19],0
same,Partial Response,[11]; [19],2
same,Stable Disease,[11]; [19],1
same,Survivors,[11]; [19],3
same,Toxic Deaths,[8],5
same,Survivors,[8],0
same,IC50,[3],< 1 nM
